Laboratory results taken from PubChem BioAssay (NCI).
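Growth conditions: 96-well plates. Treatment: test compound, 48 hours, 5 concentrations. Analysis: linear interpolation between bracketing concentrations; unreached endpoints set to highest concentration. GI50: concentration for 50% inhibition of growth. TGI: total growth inhibition.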

Legend:
Assay in all cases: DTP human tumour cell line panel, 48 h
786-0 renal = system: 786-0 renal
A498 renal = system: A498 renal
A549 NSCLC = system: A549 NSCLC
ACHN renal = system: ACHN renal
BT-549 breast = system: BT-549 breast
CAKI-1 renal = system: CAKI-1 renal
CCRF-CEM leukemia = system: CCRF-CEM leukemia
COLO 205 colon = system: COLO 205 colon
DU-145 prostate = system: DU-145 prostate
EKVX NSCLC = system: EKVX NSCLC
HCC-2998 colon = system: HCC-2998 colon
HCT-116 colon = system: HCT-116 colon
HCT-15 colon = system: HCT-15 colon
HL-60(TB) leukemia = system: HL-60(TB) leukemia
HOP-62 NSCLC = system: HOP-62 NSCLC
HOP-92 NSCLC = system: HOP-92 NSCLC
HS 578T breast = system: HS 578T breast
HT29 colon = system: HT29 colon
IGROV1 ovarian = system: IGROV1 ovarian
K-562 leukemia = system: K-562 leukemia
KM12 colon = system: KM12 colon
LOX IMVI melanoma = system: LOX IMVI melanoma
M14 melanoma = system: M14 melanoma
MALME-3M melanoma = system: MALME-3M melanoma
MCF7 breast = system: MCF7 breast
MDA-MB-231 breast = system: MDA-MB-231 breast
MDA-MB-435 = system: MDA-MB-435
MOLT-4 leukemia = system: MOLT-4 leukemia
NCI-H226 lung = system: NCI-H226 lung
NCI-H23 lung = system: NCI-H23 lung
NCI-H460 lung = system: NCI-H460 lung
NCI-H522 lung = system: NCI-H522 lung
NCI/ADR-RES ovarian = system: NCI/ADR-RES ovarian
OVCAR-3 ovarian = system: OVCAR-3 ovarian
OVCAR-4 ovarian = system: OVCAR-4 ovarian
OVCAR-5 ovarian = system: OVCAR-5 ovarian
OVCAR-8 ovarian = system: OVCAR-8 ovarian
PC-3 prostate = system: PC-3 prostate
RPMI-8226 leukemia = system: RPMI-8226 leukemia
RXF 393 renal = system: RXF 393 renal
SF-268 CNS = system: SF-268 CNS
SF-295 CNS = system: SF-295 CNS
SF-539 CNS = system: SF-539 CNS
SK-MEL-2 melanoma = system: SK-MEL-2 melanoma
SK-MEL-28 melanoma = system: SK-MEL-28 melanoma
SK-MEL-5 melanoma = system: SK-MEL-5 melanoma
SK-OV-3 ovarian = system: SK-OV-3 ovarian
SN12C renal = system: SN12C renal
SNB-19 CNS = system: SNB-19 CNS
SNB-75 CNS = system: SNB-75 CNS
SW-620 colon = system: SW-620 colon
T-47D breast = system: T-47D breast
TK-10 renal = system: TK-10 renal
U251 CNS = system: U251 CNS
UACC-257 melanoma = system: UACC-257 melanoma
UACC-62 melanoma = system: UACC-62 melanoma
UO-31 renal = system: UO-31 renal

For `CC(=O)N1N=C(c2ccc(Nc3nc(Nc4ccc(F)cc4)nc(Nc4ccc(F)cc4)n3)cc2)CC1c1ccc(N(C)C)cc1` (stereo not drawn), the GI50 (786-0 renal) was 5.09 µM, the TGI (786-0 renal) was 23.3 µM and the GI50 (A498 renal) was 5.58 µM. It also gave a TGI (A498 renal) of 26.8 µM, a GI50 (A549 NSCLC) of 4.58 µM and a TGI (A549 NSCLC) of 26.8 µM. For the same molecule, the GI50 (ACHN renal) was 6.15 µM, the TGI (ACHN renal) was 18.7 µM and the GI50 (BT-549 breast) was 11 µM. It also gave a TGI (BT-549 breast) of 54.8 µM, a GI50 (CAKI-1 renal) of 15.6 µM and a TGI (CAKI-1 renal) of 93.1 µM. For the same molecule, the GI50 (CCRF-CEM leukemia) was 3.36 µM, the TGI (CCRF-CEM leukemia) was 49.9 µM and the GI50 (COLO 205 colon) was 5.73 µM. It also gave a TGI (COLO 205 colon) of 22.6 µM, a GI50 (DU-145 prostate) of 11.9 µM and a TGI (DU-145 prostate) of 32 µM. For the same molecule, the GI50 (EKVX NSCLC) was 15.7 µM, the TGI (EKVX NSCLC) was over 100 µM and the GI50 (HCC-2998 colon) was 15.9 µM. The TGI (HCC-2998 colon) was over 100 µM, the GI50 (HCT-116 colon) was 3.6 µM and the TGI (HCT-116 colon) was 14.7 µM. The GI50 (HCT-15 colon) was 2410 nM, the TGI (HCT-15 colon) was 7.43 µM and the GI50 (HL-60(TB) leukemia) was 2000 nM. It also gave a TGI (HL-60(TB) leukemia) of 6.12 µM, a GI50 (HOP-62 NSCLC) of 5.98 µM and a TGI (HOP-62 NSCLC) of 26 µM. The TGI (HOP-92 NSCLC) was 488 nM, the GI50 (HS 578T breast) was 1600 nM and the TGI (HS 578T breast) was 9.02 µM. The GI50 (HT29 colon) was 3.79 µM, the TGI (HT29 colon) was 28.9 µM and the GI50 (IGROV1 ovarian) was 7.09 µM. It also gave a TGI (IGROV1 ovarian) of 30.6 µM, a GI50 (K-562 leukemia) of 2690 nM and a TGI (K-562 leukemia) of 7.31 µM. The GI50 (KM12 colon) was 3.34 µM, the TGI (KM12 colon) was 12.4 µM and the GI50 (LOX IMVI melanoma) was 12.2 µM. It also gave a TGI (LOX IMVI melanoma) of 24.6 µM, a GI50 (M14 melanoma) of 2790 nM and a TGI (M14 melanoma) of 9.79 µM. For the same molecule, the GI50 (MALME-3M melanoma) was 11.4 µM, the TGI (MALME-3M melanoma) was 34.8 µM and the GI50 (MCF7 breast) was 3.23 µM. It also gave a TGI (MCF7 breast) of 13.7 µM, a GI50 (MDA-MB-231 breast) of 6.54 µM and a TGI (MDA-MB-231 breast) of 29.7 µM. It also gave a GI50 (MDA-MB-435) of 3 µM, a TGI (MDA-MB-435) of 11.1 µM and a GI50 (MOLT-4 leukemia) of 1570 nM. It also gave a TGI (MOLT-4 leukemia) of 5.7 µM, a GI50 (NCI-H226 lung) of 3.29 µM and a TGI (NCI-H226 lung) of 14.9 µM. For the same molecule, the GI50 (NCI-H23 lung) was 4.1 µM, the TGI (NCI-H23 lung) was 26.7 µM and the GI50 (NCI-H460 lung) was 4.9 µM. It also gave a TGI (NCI-H460 lung) of 17 µM, a GI50 (NCI-H522 lung) of 4.81 µM and a TGI (NCI-H522 lung) of 30 µM. For the same molecule, the GI50 (NCI/ADR-RES ovarian) was 4.72 µM, the TGI (NCI/ADR-RES ovarian) was 33.3 µM and the GI50 (OVCAR-3 ovarian) was 5.23 µM. For the same molecule, the TGI (OVCAR-3 ovarian) was 20.3 µM, the GI50 (OVCAR-4 ovarian) was 3.77 µM and the TGI (OVCAR-4 ovarian) was over 100 µM. For the same molecule, the GI50 (OVCAR-5 ovarian) was 29.5 µM, the TGI (OVCAR-5 ovarian) was over 100 µM and the GI50 (OVCAR-8 ovarian) was 2720 nM. For the same molecule, the TGI (OVCAR-8 ovarian) was 10.1 µM, the GI50 (PC-3 prostate) was 1600 nM and the TGI (PC-3 prostate) was 6.97 µM. The GI50 (RPMI-8226 leukemia) was 1770 nM, the TGI (RPMI-8226 leukemia) was 7.57 µM and the GI50 (RXF 393 renal) was 1560 nM. It also gave a TGI (RXF 393 renal) of 5.6 µM, a GI50 (SF-268 CNS) of 12.8 µM and a TGI (SF-268 CNS) of 43.3 µM. For the same molecule, the GI50 (SF-295 CNS) was 4.34 µM, the TGI (SF-295 CNS) was 50.7 µM and the GI50 (SF-539 CNS) was 12.8 µM. For the same molecule, the TGI (SF-539 CNS) was 41.2 µM, the GI50 (SK-MEL-2 melanoma) was 3.61 µM and the TGI (SK-MEL-2 melanoma) was 16.5 µM. For the same molecule, the GI50 (SK-MEL-28 melanoma) was 4.33 µM, the TGI (SK-MEL-28 melanoma) was 19.3 µM and the GI50 (SK-MEL-5 melanoma) was 2830 nM. For the same molecule, the TGI (SK-MEL-5 melanoma) was 13 µM, the GI50 (SK-OV-3 ovarian) was 15.5 µM and the TGI (SK-OV-3 ovarian) was 53.7 µM. It also gave a GI50 (SN12C renal) of 6.3 µM, a TGI (SN12C renal) of over 100 µM and a GI50 (SNB-19 CNS) of 16.1 µM. It also gave a TGI (SNB-19 CNS) of over 100 µM, a GI50 (SNB-75 CNS) of 1510 nM and a TGI (SNB-75 CNS) of 9.89 µM. It also gave a GI50 (SW-620 colon) of 3.8 µM, a TGI (SW-620 colon) of 18.8 µM and a GI50 (T-47D breast) of 4.5 µM. It also gave a TGI (T-47D breast) of 37.4 µM, a GI50 (TK-10 renal) of 7.02 µM and a TGI (TK-10 renal) of 39.2 µM. It also gave a GI50 (U251 CNS) of 12.6 µM, a TGI (U251 CNS) of 25.2 µM and a GI50 (UACC-257 melanoma) of 7.14 µM. The TGI (UACC-257 melanoma) was 23.5 µM, the GI50 (UACC-62 melanoma) was 2950 nM and the TGI (UACC-62 melanoma) was 12.3 µM. It also gave a GI50 (UO-31 renal) of 5.94 µM and a TGI (UO-31 renal) of 35.8 µM.
